“And” between values parts separate entries of the source, which are not always exact repeats. Equal entries are not always repeated. Results filed as inconclusive are left out.
Tested on: BDF1 mice, s.c. Lewis lung carcinoma, T/C %
Test: NCI In Vivo Anticancer Drug Screen. Data for tumor model Lewis Lung Carcinoma (subcutaneous) in B6D2F1 (BDF1) mice
Outline: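 Readout: survival or tumor size, expressed as treated (T) over vehicle control (C). Transplantable tumor implanted in mice; compound given to the treated group.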

[1] = endpoint: median survival time, dose: 25.0 mg/kg/injection, schedule: Q01DX009 (ip), vehicle: saline with Tween-80, higher = longer survival
[2] = endpoint: median survival time, dose: 50.0 mg/kg/injection, schedule: Q01DX009 (ip), vehicle: saline with Tween-80, higher = longer survival
[3] = endpoint: mean tumor weight, dose: 12.5 mg/kg/injection, schedule: Q01DX011 (sc), vehicle: steriod suspending solution, higher = larger tumour
[4] = endpoint: mean tumor weight, dose: 25.0 mg/kg/injection, schedule: Q01DX011 (sc), vehicle: steriod suspending solution, higher = larger tumour
[5] = endpoint: mean tumor weight, dose: 50.0 mg/kg/injection, schedule: Q01DX011 (sc), vehicle: steriod suspending solution, higher = larger tumour

## Cn1c(O)c(N=NC(N)=S)c2ccccc21
endpoint: mean tumor weight, dose: 15.0 mg/kg/injection, schedule: Q01DX011 (ip), vehicle: carboxymethylcellulose (CMC), higher = larger tumour
  T/C: 70 % of control
endpoint: mean tumor weight, dose: 120.0 mg/kg/injection, schedule: Q01DX011 (ip), vehicle: carboxymethylcellulose (CMC), higher = larger tumour
  T/C: 77 % of control and 82 % of control
endpoint: mean tumor weight, dose: 360.0 mg/kg/injection, schedule: Q01DX011 (ip), vehicle: carboxymethylcellulose (CMC), higher = larger tumour
  T/C: 57 % of control
endpoint: mean tumor weight, dose: 500.0 mg/kg/injection, schedule: Q01DX011 (ip), vehicle: carboxymethylcellulose (CMC), higher = larger tumour
  T/C: 52 % of control

## CCCCCCCCCCCCSC(=N)N
endpoint: median survival time, dose: 6.25 mg/kg/injection, schedule: Q01DX009 (ip), vehicle: saline with Tween-80, higher = longer survival
  T/C: 107 % of control
endpoint: median survival time, dose: 12.5 mg/kg/injection, schedule: Q01DX009 (ip), vehicle: saline with Tween-80, higher = longer survival
  T/C: 106 % of control
[1]
  T/C: 104 % of control

## N#Cc1ncc(C(Cl)Cl)nc1Cl
[1]
  T/C: 113 % of control
[2]
  T/C: 98 % of control

## CC[C@H]1CN2CCc3cc(OC)c(OC)cc3[C@@H]2C[C@@H]1C[C@H]1NCCc2cc(O)c(OC)cc21
endpoint: mean tumor weight, dose: 1.25 mg/kg/injection, schedule: Q01DX011 (ip), vehicle: saline, higher = larger tumour
  T/C: 94 % of control
endpoint: mean tumor weight, dose: 2.5 mg/kg/injection, schedule: Q01DX011 (ip), vehicle: saline, higher = larger tumour
  T/C: 55 % of control
endpoint: mean tumor weight, dose: 5.0 mg/kg/injection, schedule: Q01DX011 (ip), vehicle: saline, higher = larger tumour
  T/C: 37 % of control

## CC[C@]1(O)C[C@H](OC2CC(N(C)C)C(OC3CC(O)C(O)C(C)O3)C(C)O2)c2c(cc3c(c2O)C(=O)c2c(O)ccc(O)c2C3=O)[C@H]1C(=O)OC (stereo partly drawn)
endpoint: median survival time, dose: 0.25 mg/kg/injection, schedule: Q01DX009 (ip), vehicle: saline with Tween-80, higher = longer survival
  T/C: 118 % of control
endpoint: median survival time, dose: 0.5 mg/kg/injection, schedule: Q01DX009 (ip), vehicle: saline with Tween-80, higher = longer survival
  T/C: 110 % of control
endpoint: median survival time, dose: 1.0 mg/kg/injection, schedule: Q01DX009 (ip), vehicle: saline with Tween-80, higher = longer survival
  T/C: 123 % of control
endpoint: median survival time, dose: 2.0 mg/kg/injection, schedule: Q01DX009 (ip), vehicle: saline with Tween-80, higher = longer survival
  T/C: 110 % of control

## C[C@]12C=CC(=O)C=C1CC[C@@H]1[C@@H]2C(=O)C[C@@]2(C)[C@H]1CC[C@]2(O)C(=O)CO
endpoint: mean tumor weight, dose: 6.25 mg/kg/injection, schedule: Q01DX011 (sc), vehicle: steriod suspending solution, higher = larger tumour
  T/C: 53 % of control
[3]
  T/C: 36 % of control
[4]
  T/C: 22 % of control
[5]
  T/C: 25 % of control
endpoint: median survival time, dose: 50.0 mg/kg/injection, schedule: Q01DX009 (ip), vehicle: Klucel (hydroxypropylcellulose) (HPC), higher = longer survival
  T/C: 88 % of control
[2]
  T/C: 102 % of control and 122 % of control
endpoint: median survival time, dose: 100.0 mg/kg/injection, schedule: Q01DX009 (ip), vehicle: Klucel (hydroxypropylcellulose) (HPC), higher = longer survival
  T/C: 107 % of control
endpoint: median tumor weight (est.), dose: 50.0 mg/kg/injection, schedule: Q01DX009 (ip), vehicle: saline with Tween-80, higher = larger tumour
  T/C: 70 % of control

## C[C@]12C=CC(=O)C=C1CC[C@@H]1[C@@H]2[C@@H](O)C[C@@]2(C)[C@H]1CC[C@]2(O)C(=O)CO
[3]
  T/C: 81 % of control
[4]
  T/C: 72 % of control
[5]
  T/C: 51 % of control
endpoint: mean tumor weight, dose: 100.0 mg/kg/injection, schedule: Q01DX011 (sc), vehicle: steriod suspending solution, higher = larger tumour
  T/C: 14 % of control
endpoint: median survival time, dose: 40.0 mg/kg/injection, schedule: Q02DX009 (ip), vehicle: Klucel (hydroxypropylcellulose) (HPC), higher = longer survival
  T/C: 99 % of control
endpoint: median survival time, dose: 80.0 mg/kg/injection, schedule: Q02DX009 (ip), vehicle: Klucel (hydroxypropylcellulose) (HPC), higher = longer survival
  T/C: 93 % of control
endpoint: median survival time, dose: 320.0 mg/kg/injection, schedule: Q02DX009 (ip), vehicle: Klucel (hydroxypropylcellulose) (HPC), higher = longer survival
  T/C: 86 % of control

## CCCCCCC(=O)NC1=C(N2CC2)C(=O)C(NC(=O)CCCCCC)=C(N2CC2)C1=O
endpoint: mean tumor weight, dose: 3.8 mg/kg/injection, schedule: Q01DX011 (ip), vehicle: other, higher = larger tumour
  T/C: 101 % of control
endpoint: mean tumor weight, dose: 7.5 mg/kg/injection, schedule: Q01DX011 (ip), vehicle: other, higher = larger tumour
  T/C: 81 % of control
endpoint: mean tumor weight, dose: 30.0 mg/kg/injection, schedule: Q01DX011 (ip), vehicle: other, higher = larger tumour
  T/C: 78 % of control
endpoint: mean tumor weight, dose: 60.0 mg/kg/injection, schedule: Q01DX011 (ip), vehicle: other, higher = larger tumour
  T/C: 30 % of control

## COc1cc(-c2cc(=O)c3c(OC)c(OC)c(OC)c(OC)c3o2)cc(OC)c1OC
endpoint: mean tumor weight, dose: 50.0 mg/kg/injection, schedule: Q01DX010 (sc), vehicle: steriod suspending solution, higher = larger tumour
  T/C: 87 % of control
endpoint: mean tumor weight, dose: 100.0 mg/kg/injection, schedule: Q01DX010 (sc), vehicle: steriod suspending solution, higher = larger tumour
  T/C: 102 % of control
endpoint: mean tumor weight, dose: 200.0 mg/kg/injection, schedule: Q01DX010 (sc), vehicle: steriod suspending solution, higher = larger tumour
  T/C: 97 % of control

From PubChem BioAssay AID270 (DTP/NCI, 2004)
